According to the supplement of paper PMC10307832:

How the values were obtained:
Experiment in all cases: relative viability (nuclei count vs DMSO), 5 days (fraction); higher = more cells survive
[1] = compound: COC1=CC=C(C=C1)COC2=C(C=C(C=C2)CC3=CN=C(N=C3N)N)OC [GW-2580] + CC(=O)Nc1cccc(-n2c(=O)n(C3CC3)c(=O)c3c(Nc4ccc(I)cc4F)n(C)c(=O)c(C)c32)c1 [Trametinib] (partner 0.02 µM)
How it was run: (§1)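 Lung cancer cell lines in 1536-well plates were dosed by pin tool the day after seeding, either with one drug alone or with a fixed anchor-drug dose plus five library-drug doses (not always all listed) in √10 steps. After 5 days, cells were fixed and their nuclei stained in one step (final 0.05% Triton X-100, 1% formaldehyde, 1 ug/ml Hoechst), then counted on 4× images. Relative viability is the nuclei count in treated wells divided by that in vehicle wells. Values are medians of duplicate plates.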

[2] = compound: COC1=CC=C(C=C1)COC2=C(C=C(C=C2)CC3=CN=C(N=C3N)N)OC [GW-2580] + Cc1nc(NC(=O)N2CCC[C@H]2C(N)=O)sc1-c1ccnc(C(C)(C)C(F)(F)F)c1 [Alpelisib] (partner 2 µM)
How it was run: as §1

[3] = compound: COC1=CC=C(C=C1)COC2=C(C=C(C=C2)CC3=CN=C(N=C3N)N)OC [GW-2580] + N=C(N)NC(=N)NCCc1ccccc1 [Phenformin] (partner 250 µM)
How it was run: as §1

[4] = compound: Cc1cnc(Nc2ccc(OCCN3CCCC3)cc2)nc1Nc1cccc(S(=O)(=O)NC(C)(C)C)c1 [Fedratinib] + CC(C)C[C@H](NC(=O)[C@H](Cc1ccccc1)NC(=O)c1cnccn1)B(O)O [Bortezomib] (partner 0.002 µM)
How it was run: as §1

[5] = compound: Cc1cnc(Nc2ccc(OCCN3CCCC3)cc2)nc1Nc1cccc(S(=O)(=O)NC(C)(C)C)c1 [Fedratinib] + O=C(CCCCCCC(=O)Nc1ccccc1)NO [Vorinostat] (partner 1 µM)
How it was run: as §1

Cell Line: EKVX
- relative viability ([1]; first compound 0.08 µM): 0.337
- relative viability ([1]; first compound 0.8 µM): 0.474
- relative viability ([1]; first compound 2.53 µM): 0.461
- relative viability ([1]; first compound 8 µM): 0.345
- relative viability ([2]; first compound 0.08 µM): 0.898
- relative viability ([2]; first compound 0.8 µM): 1.02
- relative viability ([2]; first compound 2.53 µM): 0.91
- relative viability ([2]; first compound 8 µM): 0.874
- relative viability ([3]; first compound 0.08 µM): 0.244
- relative viability ([3]; first compound 0.8 µM): 0.264
- relative viability ([3]; first compound 2.53 µM): 0.212
- relative viability ([3]; first compound 8 µM): 0.233
- relative viability ([4]; first compound 0.1 µM): 1.11
- relative viability ([4]; first compound 0.3162 µM): 1.11
- relative viability ([4]; first compound 1 µM): 1.06
- relative viability ([5]; first compound 0.1 µM): 0.736
- relative viability ([5]; first compound 0.3162 µM): 0.737
- relative viability ([5]; first compound 1 µM): 0.728

Cell Line: EMC-BAC-2
- relative viability ([1]; first compound 0.08 µM): 0.805
- relative viability ([1]; first compound 0.8 µM): 0.988
- relative viability ([1]; first compound 8 µM): 0.856
- relative viability ([2]; first compound 0.08 µM): 0.834
- relative viability ([2]; first compound 0.8 µM): 0.777
- relative viability ([2]; first compound 2.53 µM): 0.686
- relative viability ([2]; first compound 8 µM): 0.787
- relative viability ([3]; first compound 0.08 µM): 0.558
- relative viability ([3]; first compound 0.8 µM): 0.501
- relative viability ([3]; first compound 2.53 µM): 0.416
- relative viability ([3]; first compound 8 µM): 0.493
- relative viability ([4]; first compound 0.1 µM): 1.14
- relative viability ([4]; first compound 0.3162 µM): 1.01
- relative viability ([4]; first compound 1 µM): 1.09
- relative viability ([5]; first compound 0.1 µM): 0.418
- relative viability ([5]; first compound 0.3162 µM): 0.566
- relative viability ([5]; first compound 1 µM): 0.317

Cell Line: EPLC-272H
- relative viability ([1]; first compound 0.08 µM): 0.281
- relative viability ([1]; first compound 0.8 µM): 0.273
- relative viability ([1]; first compound 8 µM): 0.32
- relative viability ([2]; first compound 0.08 µM): 0.996
- relative viability ([2]; first compound 0.8 µM): 1.08
- relative viability ([2]; first compound 2.53 µM): 0.904
- relative viability ([2]; first compound 8 µM): 0.98
- relative viability ([3]; first compound 0.08 µM): 0.272
- relative viability ([3]; first compound 0.8 µM): 0.339
- relative viability ([3]; first compound 8 µM): 0.354
- relative viability ([4]; first compound 0.1 µM): 0.946
- relative viability ([4]; first compound 0.3162 µM): 0.83
- relative viability ([4]; first compound 1 µM): 0.451
- relative viability ([5]; first compound 0.1 µM): 0.547
- relative viability ([5]; first compound 0.3162 µM): 0.375
- relative viability ([5]; first compound 1 µM): 0.335

Cell Line: H3255
- relative viability ([1]; first compound 0.08 µM): 0.512
- relative viability ([1]; first compound 0.8 µM): 0.627
- relative viability ([1]; first compound 2.53 µM): 0.44
- relative viability ([1]; first compound 8 µM): 0.553
- relative viability ([2]; first compound 0.08 µM): 0.659
- relative viability ([2]; first compound 0.8 µM): 0.846
- relative viability ([2]; first compound 2.53 µM): 0.686
- relative viability ([2]; first compound 8 µM): 0.676
- relative viability ([3]; first compound 0.08 µM): 0.277
- relative viability ([3]; first compound 0.8 µM): 0.848
- relative viability ([3]; first compound 2.53 µM): 0.702
- relative viability ([3]; first compound 8 µM): 0.359
- relative viability ([4]; first compound 0.1 µM): 0.63
- relative viability ([4]; first compound 0.3162 µM): 0.742
- relative viability ([4]; first compound 1 µM): 0.605
- relative viability ([5]; first compound 0.1 µM): 0.84
- relative viability ([5]; first compound 0.3162 µM): 0.876
- relative viability ([5]; first compound 1 µM): 0.696

Cell Line: HARA
- relative viability ([1]; first compound 0.08 µM): 0.753
- relative viability ([1]; first compound 0.8 µM): 0.714
- relative viability ([1]; first compound 2.53 µM): 0.59
- relative viability ([1]; first compound 8 µM): 0.274
- relative viability ([2]; first compound 0.08 µM): 0.958
- relative viability ([2]; first compound 0.8 µM): 0.927
- relative viability ([2]; first compound 2.53 µM): 0.578
- relative viability ([2]; first compound 8 µM): 0.8
- relative viability ([3]; first compound 0.08 µM): 0.461
- relative viability ([3]; first compound 0.8 µM): 0.524
- relative viability ([3]; first compound 2.53 µM): 0.328
- relative viability ([3]; first compound 8 µM): 0.304
- relative viability ([4]; first compound 0.1 µM): 1.41
- relative viability ([4]; first compound 0.3162 µM): 1.18
- relative viability ([4]; first compound 1 µM): 0.404
- relative viability ([5]; first compound 0.1 µM): 0.512
- relative viability ([5]; first compound 0.3162 µM): 0.629
- relative viability ([5]; first compound 1 µM): 0.51

Cell Line: HCC-15
- relative viability ([1]; first compound 0.08 µM): 0.393
- relative viability ([1]; first compound 0.8 µM): 0.412
- relative viability ([1]; first compound 2.53 µM): 0.337
- relative viability ([1]; first compound 8 µM): 0.307
- relative viability ([2]; first compound 0.08 µM): 0.915
- relative viability ([2]; first compound 0.8 µM): 0.894
- relative viability ([2]; first compound 2.53 µM): 0.87
- relative viability ([2]; first compound 8 µM): 0.82
- relative viability ([3]; first compound 0.08 µM): 0.537
- relative viability ([3]; first compound 0.8 µM): 0.486
- relative viability ([3]; first compound 2.53 µM): 0.426
- relative viability ([3]; first compound 8 µM): 0.515
- relative viability ([4]; first compound 0.1 µM): 1.04
- relative viability ([4]; first compound 0.3162 µM): 0.963
- relative viability ([4]; first compound 1 µM): 0.469
- relative viability ([5]; first compound 0.1 µM): 0.875
- relative viability ([5]; first compound 0.3162 µM): 0.824
- relative viability ([5]; first compound 1 µM): 0.845

Cell Line: HCC-44
- relative viability ([1]; first compound 0.08 µM): 1.04
- relative viability ([1]; first compound 0.8 µM): 1.06
- relative viability ([1]; first compound 2.53 µM): 0.986
- relative viability ([1]; first compound 8 µM): 0.959
- relative viability ([2]; first compound 0.08 µM): 0.863
- relative viability ([2]; first compound 0.8 µM): 0.759
- relative viability ([2]; first compound 2.53 µM): 0.691
- relative viability ([2]; first compound 8 µM): 0.775
- relative viability ([3]; first compound 0.08 µM): 0.181
- relative viability ([3]; first compound 0.8 µM): 0.153
- relative viability ([3]; first compound 2.53 µM): 0.183
- relative viability ([3]; first compound 8 µM): 0.253
- relative viability ([4]; first compound 0.1 µM): 0.905
- relative viability ([4]; first compound 0.3162 µM): 0.827
- relative viability ([4]; first compound 1 µM): 0.734
- relative viability ([5]; first compound 0.1 µM): 1.13
- relative viability ([5]; first compound 0.3162 µM): 1.08
- relative viability ([5]; first compound 1 µM): 1.01

Cell Line: HCC-78
- relative viability ([1]; first compound 0.08 µM): 0.838
- relative viability ([1]; first compound 0.8 µM): 0.844
- relative viability ([1]; first compound 2.53 µM): 0.644
- relative viability ([1]; first compound 8 µM): 0.768
- relative viability ([2]; first compound 0.08 µM): 0.368
- relative viability ([2]; first compound 0.8 µM): 0.363
- relative viability ([2]; first compound 2.53 µM): 0.28
- relative viability ([2]; first compound 8 µM): 0.304
- relative viability ([3]; first compound 0.08 µM): 0.743
- relative viability ([3]; first compound 0.8 µM): 0.655
- relative viability ([3]; first compound 2.53 µM): 0.543
- relative viability ([3]; first compound 8 µM): 0.583
- relative viability ([4]; first compound 0.1 µM): 0.439
- relative viability ([4]; first compound 0.3162 µM): 0.535
- relative viability ([4]; first compound 1 µM): 0.511
- relative viability ([5]; first compound 0.1 µM): 0.382
- relative viability ([5]; first compound 0.3162 µM): 0.514
- relative viability ([5]; first compound 1 µM): 0.469

Cell Line: HCC-366
- relative viability ([1]; first compound 0.08 µM): 0.344
- relative viability ([1]; first compound 0.8 µM): 0.401
- relative viability ([1]; first compound 2.53 µM): 0.295
- relative viability ([1]; first compound 8 µM): 0.412
- relative viability ([2]; first compound 0.08 µM): 0.367
- relative viability ([2]; first compound 0.8 µM): 0.575
- relative viability ([2]; first compound 2.53 µM): 0.43
- relative viability ([2]; first compound 8 µM): 0.355
- relative viability ([3]; first compound 0.08 µM): 0.682
- relative viability ([3]; first compound 0.8 µM): 0.573
- relative viability ([3]; first compound 2.53 µM): 0.595
- relative viability ([3]; first compound 8 µM): 0.546
- relative viability ([4]; first compound 0.1 µM): 1.22
- relative viability ([4]; first compound 0.3162 µM): 1
- relative viability ([4]; first compound 1 µM): 0.174
- relative viability ([5]; first compound 0.1 µM): 0.302
- relative viability ([5]; first compound 0.3162 µM): 0.343
- relative viability ([5]; first compound 1 µM): 0.249
